From patent publication US20260232684A1, “FLT3 INHIBITORS AND METHODS OF USING THE SAME” (BIOVENTURES, LLC, priority 2023, published 2026)

Key:
[1] = system: MV-4-11 cells (FLT3-ITD-expressing); assay: Cell viability assay (CellTiter GLO), MV-4-11; format: cell-based, human; conditions: MV-4-11, 48 hours
Method: (§1) FIG. 1. […] Cells were treated with inhibitor at increasing log doses (0.1 nM-10 μM) for 48 hours. Cell viability was analyzed through CellTiter GLO. […] Cells were exposed to increasing amounts of each drug for 2 hours. GAPDH1 represents loading control for phospho-ERK and ERK blots. GAPDH2 represents loading control for phosphor-STAT5, STAT5, phospho-S6 and S6. Each experiment was completed in triplicate. Representative images are shown.
(§2) MV-4-11 and parental Molm-14 cells were a gift from Dr. Scott Kogan (University of California, San Francisco). HL60 and K562 cell lines were obtained from Charles Sawyers. […] Stable Ba/F3 lines were generated by retroviral infection as previously described (5). All cell lines were tested to be mycoplasma free and human cell lines were authenticated through STR profiling completed at the University of California, Berkeley.
(§3) Each triplicate was either dosed with drug or DMSO vehicle control. Drug dosing was completed at log doses ranging from 0.1 nM-10 μM. Cell viability was assessed after 48 hours using CellTiter GLO (Promega). Viability values were normalized to the vehicle control average. Numerical IC50 values were calculated in GraphPad Prism 7.

[2] = system: Molm14 cells (FLT3-ITD-expressing); assay: Cell viability assay (CellTiter GLO), Molm14; format: cell-based, human; conditions: Molm14, 48 hours
Method: as §1
(§4) FIG. 5. […] Cells were dosed with inhibitor at increasing log doses (0.1 nM-10 μM) for 48 hours. Cell viability was analyzed through CellTiter GLO.
as §2, §3

Molm14 F691L cells = assay: Cell viability assay (CellTiter GLO), Molm14 F691L; format: cell-based, human; conditions: 48 hours
Method: as §1, §4, §2, §3

[3] = system: HL60 cells (non-FLT3 driven); assay: Cell viability assay (CellTiter GLO), HL60; format: cell-based, human; conditions: HL60, 48 hours
Method: as §1, §2, §3

[4] = system: K562 cells (non-FLT3 driven); assay: Cell viability assay (CellTiter GLO), K562; format: cell-based, human; conditions: K562, 48 hours
Method: as §1, §2, §3

[5] = system: FLT3 phosphorylation in Molm14 D835Y cells; assay: Immunoblotting of phospho-FLT3 and downstream signaling, Molm14 D835Y; format: cell-based, human; conditions: 2 hours, Western blot
Method: FIG. 1. Activity of compounds 1 and 2 against parental Molm14 cells harboring secondary kinase domain mutations associated with clinical resistance to active FLT3 TKIs. […] Each point represents the calculated IC50 from an independent experiment completed in triplicate. Cells were treated with inhibitor at increasing log doses (0.1 nM-10 μM) for 48 hours. Cell viability was analyzed through CellTiter GLO. […] Cells were exposed to increasing amounts of each drug for 2 hours. GAPDH1 represents loading control for phospho-ERK and ERK blots. GAPDH2 represents loading control for phosphor-STAT5, STAT5, phospho-S6 and S6. Each experiment was completed in triplicate. Representative images are shown.
Exponentially growing Molm-14 or Ba/F3 cells were plated with RPMI 1640+10% (vol/vol) FBS with the indicated amount of drug. Following 120 minute incubation at 37° C., cells were washed in PBS and lysed in HEPES lysis buffer supplemented with protease and phosphatase inhibitors and processed as previously described (39). Immunoblotting was performed using anti-phospho-tyrosine 4G10 antibody (Millipore Sigma) and anti-FLT3 antibody (Cell Signaling Technology) following immunoprecipitation with anti-FLT3 antibody from 500 μg of total protein. Immunoblotting of ERK, STAT5, S6 and GAPDH was performed with anti-phospho-ERK, anti-ERK, anti-phospho-STAT5, anti-STAT5, anti-phospho-S6, anti-S6 and anti-GAPDH antibody (Cell Signaling Technology)

[6] = system: Ba/F3 cells transduced with mutagenized FLT3-ITD; assay: Saturation mutagenesis resistance selection (XL1-Red mutagenized FLT3-ITD); format: cell-based; conditions: Ba/F3 cells with FLT3-ITD mutant isoforms (FIG. 10)
Description: FIG. 10. (A) Schematic depicting the saturation mutagenesis experimental design and the range of concentrations for compound 1 and compound 2 to select for resistant cells; (B) Population doublings of XL1-Red-mutagenized FLT3-ITD plasmid-transduced Ba/F3 cells in escalating concentrations of compound 1 and compound 2. Arrows indicate the timepoint of passage when a concentration of 0.1 million cells/mL was achieved; (C) Western blot analysis of lysates collected from transduced Ba/F3 cells cultured in (lane 1) vehicle; (lane 2) 120 nM of compound 1; (lane 3) 120n M of compound 2 (lane 4) Ba/F3 cells transduced with MSCVpuro; (lane M) size marker. […] Left table: identity of mutations detected at escalating concentrations of compounds 1 and 2. Right table: IC50 values of compounds 1 and 2 in Ba/F3 cells transformed to growth factor independence with FLT3-ITD and various mutant isoforms.
To determine if these compounds are potentially vulnerable to novel secondary mutations in FLT3-ITD, Ba/F3 cells were transduced with retrovirus generated using MSCVpuro/FLT3-ITD plasmid purified from the XL1-Red bacterial strain, which is deficient in DNA mismatch repair and introduces random point mutations. This assay has successfully identified point mutations for other FLT3 TKIs that were subsequently validated in samples obtained from patients with acquired resistance. […]

[7] = system: TKI-naïve primary AML patient samples expressing FLT3-ITD; assay: Short-term liquid culture growth inhibition of primary AML samples; format: cell-based, human; conditions: 100 nM, up to 7 days, CellTiter GLO, five patient samples
Method: FIG. 11. Activity of compounds against primary FLT3-ITD AML samples in short term liquid culture assays. […] Plates were incubated with drug for 0, 1, 2, 3, 5 or 7 days. FLT3 mutation is noted for each patient in parentheses. Cell viability was analyzed through CellTiter GLO.
The compounds were further evaluated for activity against TKI-naïve primary AML patient samples expressing FLT3-ITD in short-term liquid culture growth inhibition assays (24).

[8] = system: FLT3 phosphorylation in Ba/F3 cells stably expressing FLT3-ITD in human plasma; assay: Plasma inhibitory assay; format: cell-based; conditions: for inhibition of FLT3 in the presence of human plasma, in words: 120 minutes, same concentrations as comparators
Method: A pitfall of some prior FLT3 inhibitors has been poor pharmacokinetic profiles. The plasma inhibitory assay identifies one pharmacokinetic profile by evaluating the activity of drugs in the presence of human plasma proteins that can sequester inhibitors in clinical experience.
Plasma Inhibitory Assay was performed as previously described with modifications (40). Ba/F3 cells (7×10^6 cells) stably expressing FLT3-ITD were resuspended in 1 mL of RPMI 1640+10% FBS or human plasma from a healthy control. All samples were collected under the University of California, San Francisco institutional review board (IRB)-approved cell banking protocol (CC #112514). Informed consent was obtained in accordance with the Declaration of Helsinki. The appropriate amount of drug was added and incubated at 37° C. for 120 minutes. Following, cells were washed in PBS and lysed in HEPES lysis buffer supplemented with protease and phosphatase inhibitors and processed as previously described (40,41). Immunoblotting was performed using anti-phospho-FLT3 and anti-FLT3 antibody (Cell Signaling).

| Compound | activity in cell viability assay (IC50, FIG. 1A), in words [1] | activity in cell viability assay (IC50, FIG. 1A/5B), in words [2] | activity in cell viability assay (IC50, FIG. 1A/5B), in words (Molm14 F691L cells) | activity in cell viability assay (IC50, FIG. 1A), in words [3] | activity in cell viability assay (IC50, FIG. 1A), in words [4] | inhibition of FLT3 phosphorylation and downstream targets, in words [5] | resistance conferred by secondary FLT3 mutations that confer relative resistance to other FLT3 TKIs [6] | activity against primary FLT3-ITD AML samples, in words [7] | impact of the presence of plasma on activity ([8]; human plasma vs RPMI 1640+10% FBS) | inhibition of FLT3 in the presence of human plasma, in words [8] | concentration that fully ablated FLT3 phosphorylation [5] [nM] |
| --- | --- | --- | --- | --- | --- | --- | --- | --- | --- | --- | --- |
| CN(C)CCNc1ncc(F)c(-c2cnc3cc(-c4cnn(C)c4)ccn23)n1 [Compound 1] | activity comparable to quizartinib and superior to gilteritinib | activity comparable to quizartinib and superior to gilteritinib | retain activity | neither compound displayed any concerning toxicity | neither compound displayed any concerning toxicity | potent inhibition of phosphorylation | none of these were capable of conferring significant resistance | activity comparable to quizartinib and gilteritinib in all samples | almost no impact | more potent inhibition of FLT3 in the presence of plasma compared to quizartinib and gilteritinib | – |
| CC(C)(C)c1cc(NC(=O)Cc2ccc(-c3cnc4cc(-c5cnn(CCN6CCOCC6)c5)ccc4n3)cc2)no1 [Compound 2, N-(5-(tert-butyl)isoxazol-3-yl)-2-(4-(6-(1-(2-morpholinoethyl)-1H-pyrazol-4-yl)quinoxalin-2-yl)phenyl) acetamide] | activity comparable to quizartinib and superior to gilteritinib | activity comparable to quizartinib and superior to gilteritinib | retain activity | neither compound displayed any concerning toxicity | neither compound displayed any concerning toxicity | somewhat decreased ability to inhibit phosphorylation | none of these were capable of conferring significant resistance | most potent activity of all the compounds | – | more potent inhibition of FLT3 in the presence of plasma compared to quizartinib and gilteritinib | 50 |
